Reference: patent US10023591B2, “Heterocyclic derivatives and use thereof” (C&C RESEARCH LABORATORIES, priority 2014, dated 2018)

How the values were obtained:
STAT3 = STAT3 reporter gene assay (luciferase), LNCaP stable cell line pSTAT3-TA-luc, IL-6 stimulation; format: cell-based, human; conditions: Homo sapiens
Method in brief: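 LNCaP cells stably carrying pSTAT3-TA-luc were plated 24 h in 3% DCC-FBS medium, then given compound followed by IL-6 (10 ng/mL final) for 24 h at 37 °C. Luciferase was read from lysates, with CellTiter-Glo viability on a duplicate plate. Stimulated 0.1% DMSO wells served as uninhibited control.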

STAT1 = STAT1 reporter gene assay (luciferase), U2OS stable cell line pGL4-STAT1-TA-luc, IFN-γ stimulation; format: cell-based, human; conditions: Homo sapiens, IFN-γ 50 ng/mL, 8 hours, read-out: IC50 (μM) pSTAT1
Method in brief: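 U2OS cells stably carrying a STAT1-driven luciferase reporter were treated with serially diluted compounds plus IFN-γ (50 ng/mL final) for 8 h at 37 °C in 10% FBS medium. Luciferase read after lysis; parallel plate assessed for cytotoxicity by CellTiter-Glo.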

[1] = test system: LNCaP prostate cancer cell line; assay: Cell growth inhibition assay, LNCaP (CellTiter-Glo); format: cell-based; conditions: Homo sapiens; LNCaP, 10,000 cells/well, medium with 10 ng/mL IL-6, 96 hours
Experimental: (§1) The inhibitory effects of the compounds of the present invention against the growth of cancer cells were evaluated as shown below. The cancer cell lines including prostate cancer cell lines (LNCaP, DU-145), stomach cancer cell line (NCI-N87), and breast cancer cell lines (MDA-MB-468) were cultured under the protocol provided by each supplier. A medium supplemented with 10 ng/mL of IL-6 was used for LNCaP, a prostate cancer cell line, when treated with a drug. Each type of cells to be used in experiments was sub-cultured in a 96-well plate by counting the exact number of cells using Tali™ Image-based Cytometer (Life Technologies). In a 96-well plate, DU-145 was employed with 3,000 cells/well; NCI-N87 was employed with 5,000 cells/well; and LNCaP and MDA-MB-468 were employed with 10,000 cells/well. The cells were treated with the compounds listed in Examples which were diluted in various concentrations. Upon completion of the compounds treatment, LNCaP, DU-145, NCI-N87 cells were cultured at 37° C. under 5% CO2 for 96 hours, and MDA-MB-468 cells were cultured at 37° C. in air for 96 hours. Subsequently, the cells were observed under microscope and drug precipitation and particular findings were investigated and recorded. And then, the 96-well plate was placed at room temperature for 30 minutes, added with 20 pt/well of CellTiter-Glo solution (Cat No. G7573, Promega) and shaken for 10 minutes, followed by being subjected to the measurement using PHERAstar™ microplate reader (BMG LABTECH) according to the supplier's general luminometer protocol. Wells where only culture liquid added without cell plating were used as a negative control, whereas wells where culture liquid containing 0.1% DMSO instead of the compounds listed in Examples were used as a positive control.

[2] = test system: DU-145 prostate cancer cell line; assay: Cell growth inhibition assay, DU-145 (CellTiter-Glo); format: cell-based; conditions: Homo sapiens; DU-145, 3,000 cells/well, 96 hours
Experimental: as §1

| Structure (SMILES) | IC50 (STAT3) [µM] | IC50 (STAT1) [µM] | IC50 [1] [µM] | IC50 [2] [µM] |
| --- | --- | --- | --- | --- |
| CC(C)(c1ccc(Cl)cc1)c1cc(Cl)cc(NC(=O)c2cc3cc(C(C)(C)S(C)(=O)=O)ccc3s2)c1 [Example 22, N-(3-chloro-5-(2-(4-chlorophenyl)propan-2-yl)phenyl)-5-(2-(methylsulfonyl)propan-2-yl)benzo[b]thiophene-2-carboxamide] | 0.015 | > 50 | 0.024 | 0.014 |
| CC(C)(c1ccc(Cl)cc1)c1cc(Cl)cc(NC(=O)c2cc3cc(C(C)(C)S(C)(=O)=O)c(Cl)cc3s2)c1 [Example 23, 6-chloro-N-(3-chloro-5-(2-(4-chlorophenyl)propan-2-yl)phenyl)-5-(2-(methylsulfonyl)propan-2-yl)benzo[b]thiophene-2-carboxamide] | 0.084 | > 50 | 0.8 | 0.04 |
| CC(C)(c1ccc(Cl)cc1)c1cc(Cl)cc(NC(=O)c2cc3cc(C(F)S(C)(=O)=O)ccc3s2)c1 (stereo not shown) [Example 25, N-(3-chloro-5-(2-(4-chlorophenyl)propan-2-yl)phenyl)-5-(fluoro(methylsulfonyl)methyl)benzo[b]thiophene-2-carboxamide] | 0.034 | > 50 | 0.072 | 0.066 |
| CC(C)(c1cc(Cl)cc(NC(=O)c2cc3cc(C(C)(C)S(C)(=O)=O)ccc3s2)c1)c1ccc(Cl)s1 [Example 27, N-(3-chloro-5-(2-(5-chlorothiophen-2-yl)propan-2-yl)phenyl)-5-(2-(methylsulfonyl)propan-2-yl)benzo[b]thiophene-2-carboxamide] | 0.075 | > 50 | 0.029 | 0.024 |

Next, values leading:

| IC50 (STAT3) [µM] | IC50 (STAT1) [µM] | IC50 [1] [µM] | IC50 [2] [µM] | Structure (SMILES) |
| --- | --- | --- | --- | --- |
| 0.0057 | > 50 | 0.0022 | 0.0018 | CC(C)Oc1cc(OC(F)(F)F)cc(C(C)(C)c2cc(Cl)cc(NC(=O)c3cc4cc(CS(C)(=O)=O)ccc4s3)c2)c1 [Example 16, N-(3-chloro-5-(2-(3-isopropoxy-5-(trifluoromethoxy)phenyl)propan-2-yl)phenyl)-5-((methylsulfonyl)methyl)benzo[b]thiophene-2-carboxamide] |
| 0.045 | > 50 | 0.08 | 0.039 | COc1ccc(C(C)(C)c2cc(Cl)cc(NC(=O)c3cc4cc(C(C)(C)S(C)(=O)=O)ccc4s3)c2)cc1 [Example 17, N-(3-chloro-5-(2-(4-methoxyphenyl)propan-2-yl)phenyl)-5-(2-(methylsulfonyl)propan-2-yl)benzo[b]thiophene-2-carboxamide] |
| 0.031 | > 50 | 0.056 | 0.023 | CC(C)(c1ccc(F)cc1)c1cc(Cl)cc(NC(=O)c2cc3cc(C(C)(C)S(C)(=O)=O)ccc3s2)c1 [Example 18, N-(3-chloro-5-(2-(4-fluorophenyl)propan-2-yl)phenyl)-5-(2-(methylsulfonyl)propan-2-yl)benzo[b]thiophene-2-carboxamide] |
| 0.029 | > 50 | 0.043 | 0.022 | CC(C)(c1ccc(F)cc1)c1cc(Cl)cc(NC(=O)c2cc3cc(C(C)(C)S(C)(=O)=O)c(F)cc3s2)c1 [Example 19, N-(3-chloro-5-(2-(4-fluorophenyl)propan-2-yl)phenyl)-6-fluoro-5-(2-(methylsulfonyl)propan-2-yl)benzo[b]thiophene-2-carboxamide] |
| 0.11 | > 50 | 0.04 | 0.017 | CC(C)(c1ccc(Cl)cc1)c1cc(Cl)cc(NC(=O)c2cc3cc(CS(C)(=O)=O)ccc3s2)c1 [Example 21, N-(3-chloro-5-(2-(4-chlorophenyl)propan-2-yl)phenyl)-5-((methylsulfonyl)methyl)benzo[b]thiophene-2-carboxamide] |
| 0.9 | > 50 | > 1.1 | > 1.1 | CC(C)(c1ccc(Cl)cc1)c1cc(Cl)cc(NC(=O)c2cc3cc(CS(=O)(=O)C(F)(F)F)ccc3s2)c1 [Example 24, N-(3-chloro-5-(2-(4-chlorophenyl)propan-2-yl)phenyl)-5-(((trifluoromethyl)sulfonyl)methyl)benzo[b]thiophene-2-carboxamide] |
